Laboratory results taken from ChEMBL document CHEMBL1201861, “Genomics of Drug Sensitity in Cancer screening data, Wellcome Trust Sanger Institute”.

Key:
Experiment in all cases: cells
Conditions in all cases: Homo sapiens
[1] = tested on: DMS-79; assay type: functional, cell-based;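 also: growth inhibition measured with a cell viability assay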
Description: SANGER: Inhibition of human DMS-79 cell growth in a cell viability assay.

[2] = tested on: EC-GI-10; assay type: functional, cell-based
Description: SANGER: Inhibition of human EC-GI-10 cell growth in a cell viability assay.

[3] = tested on: ES1; assay type: functional, cell-based;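 also: growth inhibition of ES1 cells, read out with a cell viability assay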
Description: SANGER: Inhibition of human ES1 cell growth in a cell viability assay.

[4] = tested on: ES5; assay type: functional, cell-based;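 also: growth inhibition of human ES5 cells, read out by a cell viability assay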
Description: SANGER: Inhibition of human ES5 cell growth in a cell viability assay.

[5] = tested on: ES8; assay type: functional, cell-based;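 also: growth inhibition of human ES8 cells, read out with a cell viability assay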
Description: SANGER: Inhibition of human ES8 cell growth in a cell viability assay.

[6] = tested on: ETK-1; assay type: functional, cell-based;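 also: growth inhibition of human ETK-1 cells, read out with a cell viability assay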
Description: SANGER: Inhibition of human ETK-1 cell growth in a cell viability assay.

[7] = tested on: EOL1; assay type: functional, cell-based;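 also: growth inhibition of EoL-1 cells, read out by a cell viability assay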
Description: SANGER: Inhibition of human EoL-1-cell cell growth in a cell viability assay.

[8] = tested on: GB-1; assay type: functional, cell-based;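 also: growth of GB-1 cells judged by a viability assay, IC50 marks the concentration inhibiting growth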
Description: SANGER: Inhibition of human GB-1 cell growth in a cell viability assay.

[9] = tested on: GI-1; assay type: functional, cell-based;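 also: growth inhibition of human GI-1 cells, measured with a cell viability readout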
Description: SANGER: Inhibition of human GI-1 cell growth in a cell viability assay.

[10] = tested on: GOTO; assay type: functional, cell-based;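 also: growth inhibition of GOTO cells, read out by a cell viability assay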
Description: SANGER: Inhibition of human GOTO cell growth in a cell viability assay.

[11] = tested on: GR-ST; assay type: functional, cell-based
Description: SANGER: Inhibition of human GR-ST cell growth in a cell viability assay.

[12] = tested on: HCC2218; assay type: functional, cell-based;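 also: cell viability assay read-out, with IC50 given as the concentration that inhibits growth of the cell line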
Description: SANGER: Inhibition of human HCC2218 cell growth in a cell viability assay.

[13] = tested on: HL-60; assay type: functional, cell-based;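 also: growth inhibition of human HL-60 cells, read out with a cell viability assay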
Description: SANGER: Inhibition of human HL-60 cell growth in a cell viability assay.

[14] = tested on: IST-SL1; assay type: functional, cell-based;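 also: growth inhibition of human IST-SL1 cells, read out with a cell viability assay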
Description: SANGER: Inhibition of human IST-SL1 cell growth in a cell viability assay.

[15] = tested on: J-RT3-T3-5; assay type: functional, cell-based;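 also: cell viability assay measuring growth inhibition of human J-RT3-T3-5 cells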
Description: SANGER: Inhibition of human J-RT3-T3-5 cell growth in a cell viability assay.

[16] = tested on: JAR; assay type: functional, cell-based;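 also: growth inhibition of human JAR cells determined with a cell viability assay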
Description: SANGER: Inhibition of human JAR cell growth in a cell viability assay.

[17] = tested on: JVM-2; assay type: functional, cell-based;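 also: growth inhibition of JVM-2 cells determined by a cell viability assay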
Description: SANGER: Inhibition of human JVM-2 cell growth in a cell viability assay.

[18] = tested on: KARPAS-299; assay type: functional, cell-based
Description: SANGER: Inhibition of human KARPAS-299 cell growth in a cell viability assay.

[19] = tested on: KG-1; assay type: functional, cell-based;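 also: growth inhibition of KG-1 cells, read out by a cell viability assay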
Description: SANGER: Inhibition of human KG-1 cell growth in a cell viability assay.

[20] = tested on: KMOE-2; assay type: functional, cell-based;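 also: growth inhibition of human KMOE-2 cells, read out with a cell viability assay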
Description: SANGER: Inhibition of human KMOE-2 cell growth in a cell viability assay.

[21] = tested on: KNS-42; assay type: functional, cell-based;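 also: growth inhibition of KNS-42 cells, read out with a cell viability assay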
Description: SANGER: Inhibition of human KNS-42 cell growth in a cell viability assay.

[22] = tested on: KS-1; assay type: functional, cell-based;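 also: growth inhibition of KS-1 cells, read out with a cell viability assay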
Description: SANGER: Inhibition of human KS-1 cell growth in a cell viability assay.

[23] = tested on: KU812 cell line; assay type: functional, cell-based;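 also: growth inhibition of KU812 cells, read out with a cell viability assay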
Description: SANGER: Inhibition of human KU812 cell growth in a cell viability assay.

[24] = tested on: KY821; assay type: functional, cell-based;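 also: growth inhibition of human KY821 cells, read out by a cell viability assay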
Description: SANGER: Inhibition of human KY821 cell growth in a cell viability assay.

[25] = tested on: LB1047-RCC; assay type: functional, cell-based;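 also: inhibition of cell growth, determined with a cell viability assay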
Description: SANGER: Inhibition of human LB1047-RCC cell growth in a cell viability assay.

[26] = tested on: LB831-BLC; assay type: functional, cell-based;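 also: growth inhibition of LB831-BLC cells, read out with a cell viability assay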
Description: SANGER: Inhibition of human LB831-BLC cell growth in a cell viability assay.

[27] = tested on: LOX IMVI; assay type: functional, cell-based
Description: SANGER: Inhibition of human LOXIMVI cell growth in a cell viability assay.

[28] = tested on: LS-513; assay type: functional, cell-based
Description: SANGER: Inhibition of human LS-513 cell growth in a cell viability assay.

[29] = tested on: LU-134-A; assay type: functional, cell-based
Description: SANGER: Inhibition of human LU-134-A cell growth in a cell viability assay.

[30] = tested on: MC116; assay type: functional, cell-based;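 also: growth inhibition of MC116 cells, read out with a cell viability assay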
Description: SANGER: Inhibition of human MC116 cell growth in a cell viability assay.

[31] = tested on: MHH-PREB-1; assay type: functional, cell-based;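 also: cell viability assay measuring inhibition of proliferation of human MHH-PREB-1 cells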
Description: SANGER: Inhibition of human MHH-PREB-1 cell growth in a cell viability assay.

[32] = tested on: MN-60; assay type: functional, cell-based;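 also: growth inhibition of the MN-60 cell line, determined with a cell viability assay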
Description: SANGER: Inhibition of human MN-60 cell growth in a cell viability assay.

[33] = tested on: MOLT-16; assay type: functional, cell-based;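 also: growth inhibition of human MOLT-16 cells, read out with a cell viability assay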
Description: SANGER: Inhibition of human MOLT-16 cell growth in a cell viability assay.

[34] = tested on: MZ1-PC; assay type: functional, cell-based;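 also: cell viability assay measuring growth inhibition of human MZ1-PC cells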
Description: SANGER: Inhibition of human MZ1-PC cell growth in a cell viability assay.

[35] = tested on: NCI-H1155; assay type: functional, cell-based;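 also: cell growth inhibition measured by a viability assay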
Description: SANGER: Inhibition of human NCI-H1155 cell growth in a cell viability assay.

[36] = tested on: NCI-H1355; assay type: functional, cell-based;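 also: growth inhibition of human NCI-H1355 cells, read out by a cell viability assay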
Description: SANGER: Inhibition of human NCI-H1355 cell growth in a cell viability assay.

[37] = tested on: NCI-H1648; assay type: functional, cell-based;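 also: cell viability assay measuring inhibition of NCI-H1648 cell growth, from the Sanger screening data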
Description: SANGER: Inhibition of human NCI-H1648 cell growth in a cell viability assay.

[38] = tested on: SNU1; assay type: functional, cell-based;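 also: growth inhibition of human NCI-SNU-1 cells, measured with a cell viability assay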
Description: SANGER: Inhibition of human NCI-SNU-1 cell growth in a cell viability assay.

[39] = tested on: NOMO-1; assay type: functional, cell-based;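 also: growth inhibition of human NOMO-1 cells measured by a cell viability assay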
Description: SANGER: Inhibition of human NOMO-1 cell growth in a cell viability assay.

[40] = tested on: NTERA-2-cl-D1; assay type: functional, cell-based;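 also: inhibition of cell growth, measured with a cell viability assay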
Description: SANGER: Inhibition of human NTERA-S-cl-D1 cell growth in a cell viability assay.

[41] = tested on: OCUB-M; assay type: functional, cell-based;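 also: growth inhibition of the cancer cell line, read out through a cell viability assay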
Description: SANGER: Inhibition of human OCUB-M cell growth in a cell viability assay.

[42] = tested on: OMC-1; assay type: functional, cell-based;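 also: growth inhibition of the OMC-1 cell line, measured by a cell viability assay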
Description: SANGER: Inhibition of human OMC-1 cell growth in a cell viability assay.

[43] = tested on: RPMI-8226; assay type: functional, cell-based
Description: SANGER: Inhibition of human RPMI-8226 cell growth in a cell viability assay.

[44] = tested on: RXF 393; assay type: functional, cell-based;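 also: growth inhibition of human RXF 393 cells, read out with a cell viability assay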
Description: SANGER: Inhibition of human RXF393 cell growth in a cell viability assay.

[45] = tested on: Ramos-2G6-4C10; assay type: functional, cell-based;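 also: growth inhibition of the cell line, measured by a cell viability read-out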
Description: SANGER: Inhibition of human Ramos-2G6-4C10 cell growth in a cell viability assay.

[46] = tested on: SBC-1; assay type: functional, cell-based;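 also: cell viability assay measuring growth inhibition of the SBC-1 cell line, IC50 being the concentration that halves growth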
Description: SANGER: Inhibition of human SBC-1 cell growth in a cell viability assay.

[47] = tested on: SCH; assay type: functional, cell-based;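 also: growth inhibition of human SCH cells, read out in a cell viability assay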
Description: SANGER: Inhibition of human SCH cell growth in a cell viability assay.

[48] = tested on: SH-4; assay type: functional, cell-based;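 also: growth inhibition of SH-4 cells, read out with a cell viability assay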
Description: SANGER: Inhibition of human SH-4 cell growth in a cell viability assay.

[49] = tested on: SHP77; assay type: functional, cell-based, SHP-77;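 also: growth inhibition of human SHP-77 cells measured by a cell viability assay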
Description: SANGER: Inhibition of human SHP-77 cell growth in a cell viability assay.

[50] = tested on: SK-MEL-2; assay type: functional, cell-based;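 also: growth inhibition of human SK-MEL-2 cells measured with a cell viability assay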
Description: SANGER: Inhibition of human SK-MEL-2 cell growth in a cell viability assay.

[51] = tested on: SK-PN-DW; assay type: functional, cell-based;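 also: growth inhibition measured with a viability assay on these cells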
Description: SANGER: Inhibition of human SK-PN-DW cell growth in a cell viability assay.

[52] = tested on: SNU-C2B; assay type: functional, cell-based;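 also: cell viability readout used to measure compound-driven suppression of SNU-C2B cell proliferation, IC50 marking half-maximal growth inhibition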
Description: SANGER: Inhibition of human SNU-C2B cell growth in a cell viability assay.

[53] = tested on: SW 954; assay type: functional, cell-based;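 also: growth inhibition of SW954 human cancer cells, read out as cell viability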
Description: SANGER: Inhibition of human SW954 cell growth in a cell viability assay.

[54] = tested on: 697; assay type: functional, cell-based
Description: SANGER: Inhibition of human 697 cell growth in a cell viability assay.

[55] = tested on: A704; assay type: functional, cell-based;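 also: growth inhibition of human A704 cells, read out with a cell viability assay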
Description: SANGER: Inhibition of human A704 cell growth in a cell viability assay.

[56] = tested on: C8166; assay type: functional, cell-based;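 also: growth inhibition of human C8166 cells measured by a cell viability assay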
Description: SANGER: Inhibition of human C8166 cell growth in a cell viability assay.

[57] = tested on: TK-10; assay type: functional, cell-based
Description: SANGER: Inhibition of human TK10 cell growth in a cell viability assay.

[58] = tested on: Calu-6; assay type: functional, cell-based
Description: SANGER: Inhibition of human Calu-6 cell growth in a cell viability assay.

[59] = tested on: GAK; assay type: functional, cell-based
Description: SANGER: Inhibition of human GAK cell growth in a cell viability assay.

[60] = tested on: HDLM-2; assay type: functional, cell-based
Description: SANGER: Inhibition of human HDLM-2 cell growth in a cell viability assay.

[61] = tested on: LAN-6; assay type: functional, cell-based
Description: SANGER: Inhibition of human LAN-6 cell growth in a cell viability assay.

[62] = tested on: NCI-H1770; assay type: functional, cell-based
Description: SANGER: Inhibition of human NCI-H1770 cell growth in a cell viability assay.

[63] = tested on: NCI-H1838; assay type: functional, cell-based
Description: SANGER: Inhibition of human NCI-H1838 cell growth in a cell viability assay.

[64] = tested on: NCI-H69; assay type: functional, cell-based
Description: SANGER: Inhibition of human NCI-H69 cell growth in a cell viability assay.

[65] = tested on: no-11; assay type: functional, cell-based
Description: SANGER: Inhibition of human no-11 cell growth in a cell viability assay.

**Q.** `CC[C@@]1(O)C(=O)OCc2c1cc1n(c2=O)Cc2cc3ccccc3nc2-1` [CAMPTOTHECIN] was tested. Which IC50 [1] did it give?
**A.** 31.8 nM

**Q.** And the IC50 [2]?
**A.** 7.9 nM

**Q.** What about the IC50 [3] of the same molecule?
**A.** 0.0957 nM

**Q.** What about the IC50 [4] of the same molecule?
**A.** 0.774 nM

**Q.** And the IC50 [5]?
**A.** 0.796 nM

**Q.** And the IC50 [6]?
**A.** 34.9 nM

**Q.** What about the IC50 [7] of the same molecule?
**A.** 0.271 nM

**Q.** What about the IC50 [8] of the same molecule?
**A.** 4.68 nM

**Q.** What about the IC50 [9] of the same molecule?
**A.** 3.37 nM

**Q.** What about the IC50 [10] of the same molecule?
**A.** 0.706 nM

**Q.** And the IC50 [11]?
**A.** 0.701 nM

**Q.** And the IC50 [12]?
**A.** 55.5 nM

**Q.** And the IC50 [13]?
**A.** 3.73 nM

**Q.** And the IC50 [14]?
**A.** 34.4 nM

**Q.** And the IC50 [15]?
**A.** 2.58 nM

**Q.** And the IC50 [16]?
**A.** 14.5 nM

**Q.** What about the IC50 [17] of the same molecule?
**A.** > 100 nM

**Q.** And the IC50 [18]?
**A.** > 100 nM

**Q.** What about the IC50 [19] of the same molecule?
**A.** 1.11 nM

**Q.** And the IC50 [20]?
**A.** 11.3 nM

**Q.** What about the IC50 [21] of the same molecule?
**A.** 33.1 nM

**Q.** What about the IC50 [22] of the same molecule?
**A.** 57.9 nM

**Q.** And the IC50 [23]?
**A.** 8.36 nM

**Q.** What about the IC50 [24] of the same molecule?
**A.** 8.12 nM

**Q.** What about the IC50 [25] of the same molecule?
**A.** 7.9 nM

**Q.** And the IC50 [26]?
**A.** 18.4 nM

**Q.** And the IC50 [27]?
**A.** 3.72 nM

**Q.** What about the IC50 [28] of the same molecule?
**A.** 19.4 nM

**Q.** And the IC50 [29]?
**A.** 0.586 nM

**Q.** And the IC50 [30]?
**A.** 15.9 nM

**Q.** What about the IC50 [31] of the same molecule?
**A.** 2.73 nM

**Q.** What about the IC50 [32] of the same molecule?
**A.** 5.08 nM

**Q.** What about the IC50 [33] of the same molecule?
**A.** 0.732 nM

**Q.** What about the IC50 [34] of the same molecule?
**A.** 20.3 nM

**Q.** What about the IC50 [35] of the same molecule?
**A.** 1.19 nM

**Q.** And the IC50 [36]?
**A.** 66.1 nM

**Q.** And the IC50 [37]?
**A.** 38.1 nM

**Q.** And the IC50 [38]?
**A.** 1.09 nM

**Q.** What about the IC50 [39] of the same molecule?
**A.** 1.56 nM

**Q.** What about the IC50 [40] of the same molecule?
**A.** 0.274 nM

**Q.** And the IC50 [41]?
**A.** 38.1 nM

**Q.** What about the IC50 [42] of the same molecule?
**A.** 78.2 nM

**Q.** What about the IC50 [43] of the same molecule?
**A.** 29.5 nM

**Q.** What about the IC50 [44] of the same molecule?
**A.** 4.66 nM

**Q.** What about the IC50 [45] of the same molecule?
**A.** 10.5 nM

**Q.** And the IC50 [46]?
**A.** 27.8 nM

**Q.** What about the IC50 [47] of the same molecule?
**A.** > 100 nM

**Q.** And the IC50 [48]?
**A.** 59.8 nM

**Q.** And the IC50 [49]?
**A.** > 100 nM

**Q.** What about the IC50 [50] of the same molecule?
**A.** 54.8 nM

**Q.** What about the IC50 [51] of the same molecule?
**A.** 1.16 nM

**Q.** And the IC50 [52]?
**A.** 35.4 nM

**Q.** What about the IC50 [53] of the same molecule?
**A.** 20.3 nM

**Q.** What about the IC50 [54] of the same molecule?
**A.** 2.03 nM

**Q.** And the IC50 [55]?
**A.** 15.4 nM

**Q.** What about the IC50 [56] of the same molecule?
**A.** 41.5 nM

**Q.** What about the IC50 [57] of the same molecule?
**A.** 55.8 nM

**Q.** Which results are given for `CCn1c(-c2nonc2N)nc2cnc(Oc3cccc(NC(=O)c4ccc(OCCN5CCOCC5)cc4)c3)cc21` [GSK-269962A]?
**A.** IC50 [58]: > 2500 nM; IC50 [1]: > 2500 nM; IC50 [2]: > 2500 nM; IC50 [3]: > 2500 nM; IC50 [4]: > 2500 nM; IC50 [5]: 819 nM; IC50 [6]: > 2500 nM; IC50 [7]: > 2500 nM; IC50 [59]: > 2500 nM; IC50 [8]: > 2500 nM; IC50 [9]: 5.23 nM; IC50 [10]: > 2500 nM; IC50 [11]: > 2500 nM; IC50 [12]: > 2500 nM; IC50 [60]: > 2500 nM; IC50 [13]: > 2500 nM; IC50 [14]: 2170 nM; IC50 [15]: > 2500 nM; IC50 [16]: > 2500 nM; IC50 [17]: > 2500 nM; IC50 [18]: > 2500 nM; IC50 [19]: > 2500 nM; IC50 [20]: > 2500 nM; IC50 [21]: > 2500 nM; IC50 [22]: 4.6 nM; IC50 [23]: > 2500 nM; IC50 [24]: > 2500 nM; IC50 [61]: > 2500 nM; IC50 [25]: > 2500 nM; IC50 [26]: > 2500 nM; IC50 [27]: > 2500 nM; IC50 [28]: > 2500 nM; IC50 [29]: > 2500 nM; IC50 [30]: > 2500 nM; IC50 [31]: > 2500 nM; IC50 [32]: > 2500 nM; IC50 [33]: > 2500 nM; IC50 [34]: > 2500 nM; IC50 [35]: > 2500 nM; IC50 [36]: > 2500 nM; IC50 [37]: > 2500 nM; IC50 [62]: > 2500 nM; IC50 [63]: > 2500 nM; IC50 [64]: > 2500 nM; IC50 [38]: > 2500 nM; IC50 [39]: > 2500 nM; IC50 [40]: > 2500 nM; IC50 [41]: > 2500 nM; IC50 [42]: > 2500 nM; IC50 [43]: > 2500 nM; IC50 [44]: 393 nM; IC50 [45]: 1360 nM; IC50 [46]: > 2500 nM; IC50 [47]: > 2500 nM; IC50 [48]: > 2500 nM; IC50 [49]: > 2500 nM; IC50 [50]: > 2500 nM; IC50 [51]: > 2500 nM; IC50 [53]: > 2500 nM; IC50 [54]: 299 nM; IC50 [56]: > 2500 nM; IC50 [57]: > 2500 nM; IC50 [65]: > 2500 nM
